# Measurements taken from ChEMBL document CHEMBL5244208, “Privileged scaffolds as MAO inhibitors: Retrospect and prospects” (Eur J Med Chem, 2018).
# “And” between values parts separate entries of the source, which are not always exact repeats. Identical values can stand only once.
# Target: T1, Amine oxidase [flavin-containing] A (Rattus norvegicus, UniProt P21396)
# T1 sequence (P21396 whole entry): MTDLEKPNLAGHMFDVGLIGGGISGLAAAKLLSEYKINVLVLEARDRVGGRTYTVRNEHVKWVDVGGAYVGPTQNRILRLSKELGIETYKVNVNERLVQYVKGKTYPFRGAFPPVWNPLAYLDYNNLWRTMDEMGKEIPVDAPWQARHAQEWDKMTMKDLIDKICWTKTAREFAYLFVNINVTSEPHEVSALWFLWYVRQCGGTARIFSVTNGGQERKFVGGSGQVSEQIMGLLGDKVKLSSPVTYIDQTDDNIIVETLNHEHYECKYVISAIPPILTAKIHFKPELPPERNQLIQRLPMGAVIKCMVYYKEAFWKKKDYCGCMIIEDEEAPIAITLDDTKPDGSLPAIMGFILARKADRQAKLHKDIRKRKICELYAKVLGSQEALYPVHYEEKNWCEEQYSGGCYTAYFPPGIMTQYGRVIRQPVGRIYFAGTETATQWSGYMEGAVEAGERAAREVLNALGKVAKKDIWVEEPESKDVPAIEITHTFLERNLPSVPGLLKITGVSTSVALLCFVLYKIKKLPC
# Assay: Inhibition of rat MAO-A
# Details: not given
row,SMILES,IC50 [µM]
1,O=C1C[C@@H](c2ccc(O)cc2)Oc2cc(O)cc(O)c21 [NARINGENIN],342

# Target: T2, Amine oxidase [flavin-containing] A (Homo sapiens, UniProt P21397)
# T2 sequence (P21397 whole entry): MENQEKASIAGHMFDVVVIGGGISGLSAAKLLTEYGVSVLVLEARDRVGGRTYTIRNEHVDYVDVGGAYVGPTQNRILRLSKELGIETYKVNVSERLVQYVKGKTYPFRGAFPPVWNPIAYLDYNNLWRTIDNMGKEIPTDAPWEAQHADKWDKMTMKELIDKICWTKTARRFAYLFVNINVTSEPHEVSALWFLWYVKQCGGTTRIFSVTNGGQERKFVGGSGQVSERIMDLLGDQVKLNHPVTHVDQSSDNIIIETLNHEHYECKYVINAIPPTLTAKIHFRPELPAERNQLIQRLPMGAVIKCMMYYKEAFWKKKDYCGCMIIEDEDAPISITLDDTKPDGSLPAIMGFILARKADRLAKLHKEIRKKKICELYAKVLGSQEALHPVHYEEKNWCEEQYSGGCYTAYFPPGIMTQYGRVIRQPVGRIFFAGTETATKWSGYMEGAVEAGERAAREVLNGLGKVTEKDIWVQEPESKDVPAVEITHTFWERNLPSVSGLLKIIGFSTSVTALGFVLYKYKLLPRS
# Assay: Inhibition of human MAO-A using tyramine hydrochloride as substrate preincubated for 30 mins followed by substrate addition and measured for 1 hr by microplate reader method
# Details: not given
row,SMILES,IC50 [µM]
1,O=C(c1cc(O)cc(O)c1)c1c(O[C@@H]2OC[C@@H](O)[C@H](O)[C@H]2O)cc(O)cc1O[C@H]1O[C@@H](CO)[C@H](O)[C@H]1O,726
2,O=C(c1cc(O)cc(O)c1)c1c(O)cc(O)cc1O[C@H]1O[C@@H](CO)[C@H](O)[C@H]1O,111
3,COc1cc(O)cc(O[C@H]2O[C@@H](CO)[C@H](O)[C@H]2O)c1C(=O)c1cc(O)cc(O)c1,310

# Target: T2, Amine oxidase [flavin-containing] A
# Assay: Inhibition of MAO-A (unknown origin) incubated for 60 mins by fluorometric spectrophotometry analysis
# Details: not given
row,SMILES,IC50
1,O=c1c(O[C@@H]2O[C@H](CO)[C@@H](O)[C@H](O)[C@H]2O)c(-c2ccc(O)c(O)c2)oc2cc(O)cc(O)c12 [ISOQUERCETIN],19.1 µM
2,O=c1c(O)c(-c2ccc(O)c(O)c2)oc2cc(O)cc(O)c12 [QUERCETIN],11.6 µM and 10.9 µM
3,C[C@@H]1O[C@@H](OC[C@H]2O[C@@H](Oc3c(-c4ccc(O)c(O)c4)oc4cc(O)cc(O)c4c3=O)[C@H](O)[C@@H](O)[C@@H]2O)[C@H](O)[C@H](O)[C@H]1O [RUTIN],3.89 µM

# Target: T3, Amine oxidase [flavin-containing] B (Homo sapiens, UniProt P27338)
# T3 sequence (P27338 whole entry): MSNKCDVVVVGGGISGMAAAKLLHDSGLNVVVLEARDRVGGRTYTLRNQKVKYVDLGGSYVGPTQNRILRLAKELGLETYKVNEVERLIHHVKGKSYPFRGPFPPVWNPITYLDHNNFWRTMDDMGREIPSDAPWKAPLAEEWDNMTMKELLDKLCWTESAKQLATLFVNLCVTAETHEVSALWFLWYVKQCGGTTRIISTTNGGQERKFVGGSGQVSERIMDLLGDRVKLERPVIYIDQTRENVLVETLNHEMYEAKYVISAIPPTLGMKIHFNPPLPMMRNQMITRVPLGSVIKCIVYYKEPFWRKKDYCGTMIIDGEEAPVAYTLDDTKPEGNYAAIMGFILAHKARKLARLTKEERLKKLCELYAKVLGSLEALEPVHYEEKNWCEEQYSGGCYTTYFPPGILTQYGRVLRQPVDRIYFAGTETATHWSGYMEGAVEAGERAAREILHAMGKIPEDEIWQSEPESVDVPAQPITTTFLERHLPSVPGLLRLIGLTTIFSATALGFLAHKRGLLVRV
# Assay: Inhibition of human MAO-B
# Details: not given
row,SMILES,IC50 [µM]
1,N#CCCn1nnc(-c2ccc(OCc3ccccc3)cc2)n1,8
2,N#CCCn1nnc(-c2ccc(OCc3cccc(Cl)c3)cc2)n1,8
3,OCCn1nnc(-c2ccc(OCc3cccc(Cl)c3)cc2)n1,0.002
4,Oc1ccc(/C=C/c2cc(O)cc3c2[C@@H](c2cc(O)cc(O)c2)C(c2ccc(O)cc2)O3)cc1 (stereo not given in full),5
5,OCCn1nnc(-c2ccc(OCc3ccccc3)cc2)n1,0.002

# Target: T2, Amine oxidase [flavin-containing] A
# Assay: Inhibition of MAO-A (unknown origin)
# Details: not given
SMILES,IC50 [µM],Ki [µM]
C[C@@H]1O[C@@H](Oc2c(-c3ccc(O)c(O)c3)oc3cc(O)cc(O)c3c2=O)[C@H](O)[C@H](O)[C@H]1O [QUERCITRIN],18,

# Target: T3, Amine oxidase [flavin-containing] B
# Assay: Irreversible inhibition of human recombinant MAO-B
# Details: not given
row,SMILES,Ki [µM]
1,C#CCN(C)Cc1ccc(C(=O)NC2CC(C)(C)N([O])C(C)(C)C2)cc1,15

# Target: T2, Amine oxidase [flavin-containing] A
# Assay: Inhibition of recombinant human MAO-A using kynuramine as substrate incubated for 20 mins by spectrophotometry analysis
# Details: not given
row,SMILES,Ki [µM]
1,COC[C@H]1CN(n2cccc2)C(=O)O1,0.0049

# Target: T1, Amine oxidase [flavin-containing] A
# Assay: In vivo inhibition of MAO-A in Wistar rat with assessed as decrease in MAO activity in […] at 10 to 30 mg/kg, ip measured after 2 hrs
# Assay type: functional, organism-based
# Design: scale not given: the % may be the effect or the level left
# Details: dose 10-30 mg/kg
row,SMILES,Activity [%]
1,C[C@]12CC[C@H](O)CC1=CC[C@@H]1[C@@H]2CC[C@]2(C)C(=O)CC[C@@H]12 [PRASTERONE],-24

# Target: T2, Amine oxidase [flavin-containing] A
# Assay: Irreversible inhibition of human recombinant MAO-A
# Details: not given
row,SMILES,Ki [µM]
1,C#CCN(C)Cc1cccc(C(=O)NC2CC(C)(C)N([O])C(C)(C)C2)c1,268

# Target: Acetylcholinesterase (Homo sapiens, UniProt P22303)
# Assay: Inhibition of AChE (unknown origin) using acetylthiocholine chloride as substrate incubated for 5 mins by DTNB reagent based Ellman's method
# Details: not given
# Sequence of Acetylcholinesterase (P22303 whole entry): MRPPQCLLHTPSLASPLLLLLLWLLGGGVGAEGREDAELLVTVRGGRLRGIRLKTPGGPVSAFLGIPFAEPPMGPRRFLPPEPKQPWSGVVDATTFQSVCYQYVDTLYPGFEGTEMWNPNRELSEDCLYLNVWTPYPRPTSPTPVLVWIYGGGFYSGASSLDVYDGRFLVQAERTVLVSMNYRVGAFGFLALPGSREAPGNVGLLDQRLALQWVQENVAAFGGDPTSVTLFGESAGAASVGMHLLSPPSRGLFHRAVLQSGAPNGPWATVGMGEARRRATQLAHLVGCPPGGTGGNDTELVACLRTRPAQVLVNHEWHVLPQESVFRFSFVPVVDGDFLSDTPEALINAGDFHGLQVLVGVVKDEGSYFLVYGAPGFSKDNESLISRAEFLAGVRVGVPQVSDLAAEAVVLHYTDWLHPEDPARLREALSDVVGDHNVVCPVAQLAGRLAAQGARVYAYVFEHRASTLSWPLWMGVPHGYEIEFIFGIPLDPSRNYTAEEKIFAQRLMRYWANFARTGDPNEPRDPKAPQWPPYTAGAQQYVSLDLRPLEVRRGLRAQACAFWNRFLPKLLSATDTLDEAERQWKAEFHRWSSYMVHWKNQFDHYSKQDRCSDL
row,SMILES,IC50 [µM]
1,Cc1cc(=O)c2cc(Oc3ccccc3)ccc2o1,3
2,Cc1c(C)c2ccc(OCc3ccccc3)cc2oc1=O,3
3,Cc1c(C)c2ccc(OCc3cccc(N)c3)cc2oc1=O,3
4,Cc1ccccc1COc1ccc2c(C)c(C)c(=O)oc2c1,3
5,Cc1c(C)c2ccc(OCc3ccc(F)c(F)c3)cc2oc1=O,3
6,Cc1c(C)c2ccc(OCc3cccc(O)c3)cc2oc1=O,3
7,Cc1c(C)c2ccc(OCc3cc(F)cc(F)c3)cc2oc1=O,3
8,Cc1c(C)c2ccc(OCCc3ccccc3)cc2oc1=O,3
9,O=c1ccoc2ccc(Oc3ccccc3)cc12,3

# Target: T3, Amine oxidase [flavin-containing] B
# Assay: Inhibition of MAO-B (unknown origin)
# Details: not given
row,SMILES,Ki [µM]
1,NS(=O)(=O)Cc1noc2ccccc12 [ZONISAMIDE],30.8

# Same assay, conditions: read-out: IC50
row,SMILES,IC50 [µM]
1,COc1ccc(/C(=C\F)CN)cc1OC,0.01

# Same assay, conditions: read-out: pIC50 (converted)
row,SMILES,IC50 [µM]
1,C/C(=C\COc1ccc2ccc(=O)oc2c1)C1=CC(=O)C(C)(C)O1 [GEIPARVARIN],24
2,O=c1oc2ccc(Cl)cc2cc1Cl,0.01

# Target: T2, Amine oxidase [flavin-containing] A
# Assay: Inhibition of human recombinant MAO-A
# Details: not given
row,SMILES,IC50 [µM]
1,CC(=O)Nc1ccc2c(c1)C(=O)c1ccccc1C2=O,0.01
2,CC(=O)Nc1ccc2c(c1)S(=O)(=O)c1ccccc1N2,0.01
3,CC(=O)Nc1ccc2c(c1)S(=O)(=O)c1cc(C)ccc1C2=O,0.01
4,CC(=O)Nc1ccc2c(c1)S(=O)(=O)c1ccccc1C2=O,0.01
5,CC(=O)Nc1cccc2c1C(=O)c1ccccc1C2=O,0.01
6,CCCc1ccc2c(c1)S(=O)(=O)c1cc(NC(C)=O)ccc1C2=O,0.01
7,CC(=O)Nc1ccc2c(c1)S(=O)(=O)c1cc(NC(C)=O)ccc1N2C,0.01
8,CCc1ccc2c(c1)S(=O)(=O)c1cc(NC(C)=O)ccc1C2=O,0.01
9,O=CN(C=O)c1ccc2c(c1)S(=O)(=O)c1ccccc1C2=O,0.01
10,CC(=O)Nc1cc2c(cc1NC(C)=O)S(=O)(=O)c1ccccc1C2,0.01
11,CC(=O)Nc1ccc2c(O)c3ccccc3nc2c1,0.01
12,CC(=O)Nc1ccc2c(c1)S(=O)(=O)c1ccccc1O2,0.01
13,CC(=O)Nc1ccc2c(c1)S(=O)(=O)c1ccccc1N2C,0.01
14,CC(=O)Nc1ccc2c(c1)C(=O)c1ccccc1S2(=O)=O,0.01
